From article PMC9150124, “Design of a Potent, Selective, and Brain-Penetrant Inhibitor of Wnt-Deactivating Enzyme Notum by Optimization of a Crystallographic Fragment Hit” (Journal of Medicinal Chemistry, 2022)
Values after ≈ are worked out from the molar mass of the structure shown. Values joined by “and” are separate entries in the source; they are usually repeats but may differ in a detail not shown here. Equal values may be shown once. Where a name gives a salt, the structure may show the parent alone. Read-outs that look alike come from different tables or passages of the source. One block for each compound: values may come before it.

Experiments:
[1] = target: T1, human Notum (81–451 Cys330Ser) (Homo sapiens, UniProt Q6P988, C330S); assay: Notum OPTS biochemical assay; settings: for IC50: mean
T1 construct: human Notum (81–451 Cys330Ser) as the enzyme; made in house
T1 sequence (Q6P988 81-451 C330S): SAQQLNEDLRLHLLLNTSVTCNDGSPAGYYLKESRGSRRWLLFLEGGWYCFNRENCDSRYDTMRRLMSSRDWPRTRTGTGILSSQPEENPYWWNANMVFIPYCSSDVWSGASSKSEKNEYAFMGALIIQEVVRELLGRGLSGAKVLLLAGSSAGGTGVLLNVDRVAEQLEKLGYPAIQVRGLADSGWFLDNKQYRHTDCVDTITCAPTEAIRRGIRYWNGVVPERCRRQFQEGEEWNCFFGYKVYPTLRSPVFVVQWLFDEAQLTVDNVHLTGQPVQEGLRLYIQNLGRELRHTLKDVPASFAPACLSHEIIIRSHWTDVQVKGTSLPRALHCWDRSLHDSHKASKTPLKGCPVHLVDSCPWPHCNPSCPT
Description: The optimization of 6 to deliver this profile was directed at three principle areas of these hit structures: (1) aryl ring 7 (Table 1); (2) the C4 substituent on triazole 8 (Table 2); and (3) further fine-tuning of the triazole 9 (Table 3). […] This assay was used to establish SAR and to identify preferred leads for additional studies.
Methods have been described in detail elsewhere.[23]−[26] Representative concentration–response curves are provided in the Supporting Information.

[2] = Aqueous solubility in PBS (pH 7.4); type: physicochemical; settings: for solubility: PBS pH 7.4, read-out: aq. solubility; for solubility thermodynamic: PBS, pH 7.4, n = 2, read-out: Thermodynamic Solubility @ RT, mean
Description: Biosciences (Hyderabad, India) or WuXi AppTec (Shanghai, China).
Table S1: Representative assay protocol

[3] = Stability in mouse liver microsomes; type: in vitro ADME; design: MLM Stability Cli mean: unit not given here; settings: for half-life: mouse, liver microsomes, read-out: MLM Stability t1/2
in vitro = settings: dog
MDR1 (P-gp) = assay: in vitro; settings: dog
P-gp (MDR1) = assay: in vitro; settings: dog
Notum = target: T2, Notum (Homo sapiens, UniProt Q6P988); assay: ABPP-TMT (FP-biotin) proteomic analysis in SW620 cells
T2 sequence (Q6P988 20-496): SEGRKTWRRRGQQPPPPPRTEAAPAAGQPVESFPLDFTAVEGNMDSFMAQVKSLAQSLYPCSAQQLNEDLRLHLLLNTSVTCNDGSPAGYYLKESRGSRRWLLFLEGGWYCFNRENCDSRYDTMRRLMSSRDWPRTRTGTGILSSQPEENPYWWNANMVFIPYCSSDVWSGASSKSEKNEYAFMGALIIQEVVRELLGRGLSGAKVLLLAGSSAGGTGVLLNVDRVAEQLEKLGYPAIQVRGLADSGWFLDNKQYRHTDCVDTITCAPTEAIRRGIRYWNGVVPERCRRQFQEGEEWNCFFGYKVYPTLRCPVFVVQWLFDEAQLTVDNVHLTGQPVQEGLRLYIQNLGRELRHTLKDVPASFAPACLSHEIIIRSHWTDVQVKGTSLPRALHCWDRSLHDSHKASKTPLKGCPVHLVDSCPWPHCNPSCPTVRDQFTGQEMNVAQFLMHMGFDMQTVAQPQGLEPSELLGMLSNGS

[4] = OPTS substrate, read-out: Notum IC50
[5] = MDCK-MDR1, MDCK-MDR1 AB Papp, apical to basal
[6] = MDCK-MDR1, MDCK-MDR1 BA Papp, basal to apical
[7] = MDCK-MDR1, MDR1-MDCKII A to B % Recovery
[8] = MDCK-MDR1, MDR1-MDCKII B to A % Recovery

Compound: N#Cc1cccc(-n2cc(CO)nn2)c1 [7h, ((3-Cyanophenyl)-1H-1,2,3-triazol-4-yl)methanol]
IC50 [1, 4]: 83000 ± 36000 nM

Compound: [2H]c1nnn(-c2ccc(Cl)c(C(F)(F)F)c2Cl)c1[2H] [d2-8l, 1-(2,4-Dichloro-3-(trifluoromethyl)phenyl)-1H-1,2,3-triazole-4,5-d2]
solubility [2]: 44 µg/mL and 155 µM
solubility thermodynamic [2]: 44 µg/mL (≈ 155 µM)
MLM Cli [3]: 5.4 μL/min/mg protein and 5.4/ND μL/min/mg protein
half-life ([3]; Table S4): 2.15 h
Papp (in vitro; [5]): 48 ×10⁻⁶ cm/s
Papp (in vitro; [6]): 35 ×10⁻⁶ cm/s
recovery (MDR1 (P-gp); [7]): 102%
recovery (MDR1 (P-gp); [8]): 111%
Papp (P-gp (MDR1); [5]): 47.8 ×10⁻⁶ cm/s
Papp (P-gp (MDR1); [6]): 35.4 ×10⁻⁶ cm/s

Compound: CCOc1ccc(-n2cc(CO)nn2)cc1 [7n, ((4-Ethoxyphenyl)-1H-1,2,3-triazol-4-yl)methanol]
IC50 [1, 4]: 78000 ± 45000 nM

Compound: CCOc1cccc(-n2cc(CO)nn2)c1 [7i, ((3-Ethoxyphenyl)-1H-1,2,3-triazol-4-yl)methanol]
IC50 [1, 4]: 230000 ± 20000 nM

Compound: OCc1cn(-c2ccc(C(F)(F)F)c(C(F)(F)F)c2)nn1 [7v, ((3,4-Bis(trifluoromethyl)phenyl)-1H-1,2,3-triazol-4-yl)methanol]
IC50 [1, 4]: 2200 ± 4400 nM

Compound: OCc1cn(-c2cccc(F)c2)nn1 [7d, ((3-Fluorophenyl)-1H-1,2,3-triazol-4-yl)methanol]
IC50 [1, 4]: 25000 ± 3000 nM

Compound: OCc1cn(-c2ccc(F)cc2)nn1 [7j, ((4-Fluorophenyl)-1H-1,2,3-triazol-4-yl)methanol]
% I ([1]; @100 μM): c 40–50% I@100 μM.
IC50 [1, 4]: ~100000 nM and 100000 nM

Compound: N#Cc1ccc(-n2cc(CO)nn2)cc1 [7m, ((4-Cyanophenyl)-1H-1,2,3-triazol-4-yl)methanol]
IC50 [1, 4]: 270000 ± 310000 nM

Compound: CC(O)Cc1cn(-c2ccc(Cl)c(C(F)(F)F)c2Cl)nn1 (stereo not drawn) [8d, 1-(1-(2,4-Dichloro-3-(trifluoromethyl)phenyl)-1H-1,2,3-triazol-4-yl)propan-2-ol]
IC50 ([1]; Notum IC50, OPTS substrate): > 1000 nM
IC50 [1, 4]: 1700 ± 1400 nM

The next lines start with the values.

IC50 [1, 4]: 7.5 ± 1.6 nM
solubility [2]: 400 µg/mL and 1400 µM
solubility thermodynamic [2]: 399 µg/mL (≈ 1410 µM)
MLM Cli [3]: 4.9/ND μL/min/mg protein
MLM Stability Cli mean ([3]; Table S4): 4.94
half-life ([3]; Table S4): 2 h
Papp (in vitro; [5]): 2 ×10⁻⁶ cm/s
Papp (in vitro; [6]): 5 ×10⁻⁶ cm/s
recovery (MDR1 (P-gp); [7]): 5.93%
recovery (MDR1 (P-gp); [8]): 65.2%
Papp (P-gp (MDR1); [5]): 1.74 ×10⁻⁶ cm/s
Papp (P-gp (MDR1); [6]): 4.88 ×10⁻⁶ cm/s
efflux ratio (P-gp (MDR1); MDCK-MDR1, MDCK-MDR1 efflux ratio (ER)): 2.81
Compound: FC(F)(F)c1c(Cl)cnc(-n2ccnn2)c1Cl [9c, 3,5-Dichloro-2-(1H-1,2,3-triazol-1-yl)-4-(trifluoromethyl)pyridine]

IC50 [1, 4]: 1200 ± 300 nM
Compound: NC(=O)c1cn(-c2ccc(Cl)c(C(F)(F)F)c2Cl)nn1 [8g, 1-(2,4-Dichloro-3-(trifluoromethyl)phenyl)-1H-1,2,3-triazole-4-carboxamide]

IC50 [1, 4]: 1800 ± 1000 nM
Compound: CC(O)c1cn(-c2ccc(Cl)c(C(F)(F)F)c2Cl)nn1 (stereo not drawn) [8a, 1-(1-(2,4-Dichloro-3-(trifluoromethyl)phenyl)-1H-1,2,3-triazol-4-yl)ethan-1-ol]

IC50 [1, 4]: 1300 ± 210 nM
Compound: FC(F)(F)c1c(Cl)ccc(-n2cnnc2)c1Cl [9a, 4-(2,4-Dichloro-3-(trifluoromethyl)phenyl)-4H-1,2,4-triazole]

IC50 [1, 4]: 910 ± 120 nM
NOTUM intensity normalised to DMSO (Notum; SW620 conditioned media, 1e-8 M): 1.002
NOTUM intensity normalised to DMSO (Notum; SW620 conditioned media, 3e-8 M): 0.8137
NOTUM intensity normalised to DMSO (Notum; SW620 conditioned media, 1e-7 M): 0.7326
NOTUM intensity normalised to DMSO (Notum; SW620 conditioned media, 3e-7 M): 0.3649
NOTUM intensity normalised to DMSO (Notum; SW620 conditioned media, 1e-6 M): 0.1945
NOTUM intensity normalised to DMSO (Notum; SW620 conditioned media, 3e-6 M): 0.1349
NOTUM intensity normalised to DMSO (Notum; SW620 conditioned media, 1e-5 M): 0.07262
NOTUM intensity normalised to DMSO (Notum; SW620 lysate, 1e-8 M): 1.016
NOTUM intensity normalised to DMSO (Notum; SW620 lysate, 3e-8 M): 0.7635
NOTUM intensity normalised to DMSO (Notum; SW620 lysate, 1e-7 M): 0.7415
NOTUM intensity normalised to DMSO (Notum; SW620 lysate, 3e-7 M): 0.5781
NOTUM intensity normalised to DMSO (Notum; SW620 lysate, 1e-6 M): 0.4746
NOTUM intensity normalised to DMSO (Notum; SW620 lysate, 3e-6 M): 0.3389
NOTUM intensity normalised to DMSO (Notum; SW620 lysate, 1e-5 M): 0.2883
Compound: NCc1cn(-c2ccc(Cl)c(C(F)(F)F)c2Cl)nn1 [8i, (1-(2,4-Dichloro-3-(trifluoromethyl)phenyl)-1H-1,2,3-triazol-4-yl)methanamine Hydrochloride]
